The results in this text go back to patent US9725459B2, “3-oxo-tetrahydro-furo[3,2-B]pyrrol-4(5H)-yl) derivatives I” (GRÜNENTHAL GMBH, priority 2014, dated 2017).

SMILES strings stand for the structures. Read-outs that look alike come from different tables or passages of the source.

Holding throughout (assay type): biochemical
The target in test [1] is human cathepsin S (CatS) (Homo sapiens (Human), UniProt P25774). Briefly: CatS functional enzyme assay. The settings on record: for Selectivity Ki(hCatS)/Ki(hCatK): ratio Ki(hCatS)/Ki(hCatK); for Ki: read-out: hCatS, Ki. The procedure: Reference and test compounds were assayed for inhibitory potency (IC50) against human cathepsins using the following assay setups: Recombinant human cathepsins (CatS, CatK, CatL) were purchased from a Enzo Life Sciences. […] For CatS, the enzyme (0.0007 mU/well) was incubated with fluorogeninc substrate (Z-VVR-AMC, 5 μM) at RT for 10 min. For CatK the enzyme (0.00175 mU/well) was incubated with fluorogeninc substrate (Z-FR-AMC, 40 μM) at RT for 10 min. For CatL, the enzyme (0.000874 mU/well) was incubated with fluorogeninc substrate (Z-VVR-AMC, 40 μM) at RT for 10 min. Flourogenic substrate turnover was detected using a microplate reader (Synergy™ H4, BioTek). Ki values were calculated using the Cheng Prusoff equation (Cheng & Prosoff 1973).

Test [2] addresses human cathepsin K (CatK) (Homo sapiens (Human), UniProt P43235). Briefly: CatK functional enzyme assay. The settings on record: recombinant human CatK, substrate Z-FR-AMC 40 μM, pH 5.5; Ki by Cheng Prusoff equation; read-out: hCatK, Ki. On the procedure:
(§1) Reference and test compounds were assayed for inhibitory potency (IC50) against human cathepsins using the following assay setups:
(§2) Recombinant human cathepsins (CatS, CatK, CatL) were purchased from a Enzo Life Sciences. All assays were carried out in 96-well format using a buffer of 50 mM KH2PO4, 50 mM NaCl, 2 mM EDTA, 0.5 mM DTT and 1% Triton-X-100, pH 6.5 for Cathepsin S and a buffer of 50 mM NaOAc, 10 mM EDTA, 1 mM DTT and 0.01% Triton-X-100, pH 5.5 for CatK/L/B. For CatS, the enzyme (0.0007 mU/well) was incubated with fluorogeninc substrate (Z-VVR-AMC, 5 μM) at RT for 10 min. For CatK the enzyme (0.00175 mU/well) was incubated with fluorogeninc substrate (Z-FR-AMC, 40 μM) at RT for 10 min. For CatL, the enzyme (0.000874 mU/well) was incubated with fluorogeninc substrate (Z-VVR-AMC, 40 μM) at RT for 10 min. Flourogenic substrate turnover was detected using a microplate reader (Synergy™ H4, BioTek). Ki values were calculated using the Cheng Prusoff equation (Cheng & Prosoff 1973).

The target in test [3] is human cathepsin L (CatL) (Homo sapiens (Human), UniProt P07711). Briefly: CatL functional enzyme assay. The settings on record: read-out: hCatL, inhibition [%] at 31.6 μM. On the procedure: as §1, §2
Setting [4] is: recombinant human CatS, substrate Z-VVR-AMC 5 μM, pH 6.5, Ki by Cheng Prusoff equation.

Sequence of human cathepsin L (CatL) (P07711 114-333): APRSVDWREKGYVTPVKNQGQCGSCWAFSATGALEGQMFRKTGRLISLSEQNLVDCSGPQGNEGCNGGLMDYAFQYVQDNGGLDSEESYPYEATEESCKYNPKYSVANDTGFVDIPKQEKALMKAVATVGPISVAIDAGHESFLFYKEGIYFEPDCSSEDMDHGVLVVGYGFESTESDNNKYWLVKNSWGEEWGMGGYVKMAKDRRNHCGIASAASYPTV
Sequence of human cathepsin S (CatS) (P25774 115-331): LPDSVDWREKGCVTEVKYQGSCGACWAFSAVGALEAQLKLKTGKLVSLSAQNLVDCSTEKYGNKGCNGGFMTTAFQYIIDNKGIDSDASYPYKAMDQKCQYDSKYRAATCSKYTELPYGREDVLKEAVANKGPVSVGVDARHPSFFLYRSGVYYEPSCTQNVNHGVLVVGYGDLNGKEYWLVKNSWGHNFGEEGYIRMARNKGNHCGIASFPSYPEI
Sequence of human cathepsin K (CatK) (P43235 115-329): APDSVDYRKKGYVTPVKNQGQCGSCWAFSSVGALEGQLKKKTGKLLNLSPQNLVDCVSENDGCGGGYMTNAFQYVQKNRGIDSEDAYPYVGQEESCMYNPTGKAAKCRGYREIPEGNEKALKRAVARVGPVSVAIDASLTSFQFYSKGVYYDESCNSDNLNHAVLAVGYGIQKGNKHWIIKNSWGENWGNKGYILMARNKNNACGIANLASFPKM

Broadly, the Ki is the dissociation constant of the complex between target and ligand, obtained from inhibition or displacement. As usually defined, the inhibition is how much of the control response was suppressed. In the case of `O=C(N[C@H](C(=O)N1C[C@H](Cl)[C@H]2OCC(=O)[C@H]21)C1CCCCC1)c1ccc(-c2ccc(C3CC3)nc2)s1` [Example 63, N-((S)-2-((3aS,6S,6aS)-6-chloro-3-oxotetrahydro-2H-furo[3,2-b]pyrrol-4(5H)-yl)-1-cyclohexyl-2-oxoethyl)-5-(6-cyclopropylpyridin-3-yl)thiophene-2-carboxamide], the “Selectivity Ki(hCatS)/Ki(hCatK)” value in test [1] stood at 27.6. Also, the inhibition constant (Ki) in test [1] (setting [4]) stood at 0.525 µM; in test [2], 0.019 µM. Also, the inhibition at 31.6 µM in test [3] worked out at 1%.
On the same counts, the results for `CCc1cnnc(-c2ccc(C(=O)N[C@H](C(=O)N3C[C@H](Cl)[C@H]4OCC(=O)[C@H]43)C3CCCCC3)s2)c1` [Example 73, N-((S)-2-((3aS,6S,6aS)-6-chloro-3-oxotetrahydro-2H-furo[3,2-b]pyrrol-4(5H)-yl)-1-cyclohexyl-2-oxoethyl)-5-(5-ethylpyridazin-3-yl)thiophene-2-carboxamide] are 0.9, 0.013 µM, 0.015 µM and 26%.
For `O=C(N[C@H](C(=O)N1C[C@H](Cl)[C@H]2OCC(=O)[C@H]21)C1CCCCC1)c1ccc(-c2cccnc2)s1` [Example 2, N-((S)-2-((3aS,6S,6aS)-6-chloro-3-oxotetrahydro-2H-furo[3,2-b]pyrrol-4(5H)-yl)-1-cyclohexyl-2-oxoethyl)-5-(pyridin-3-yl)thiophene-2-carboxamide], in test [1], the “Selectivity Ki(hCatS)/Ki(hCatK)” value is listed as 23.0 and the Ki came out at 0.115 µM. For the same molecule, in test [2], the Ki is 0.005 µM. Besides, the inhibition at 31.6 µM in test [3] came out at 10%.
`Cc1nccc(-c2cnc(C(=O)N[C@H](C(=O)N3C[C@H](Cl)[C@H]4OCC(=O)[C@H]43)C3CCCCC3)s2)n1` [Example 32, N-((S)-2-((3aS,6S,6aS)-6-chloro-3-oxotetrahydro-2H-furo[3,2-b]pyrrol-4(5H)-yl)-1-cyclohexyl-2-oxoethyl)-5-(2-methylpyrimidin-4-yl)thiazole-2-carboxamide]: the “Selectivity Ki(hCatS)/Ki(hCatK)” value in test [1] came out at 15.9. The inhibitory constant (Ki) in test [1] (setting [4]) worked out at 0.317 µM; in test [2], 0.02 µM. The inhibition at 31.6 µM in test [3] was 22%.
Consider `O=C(N[C@H](C(=O)N1C[C@H](Cl)[C@H]2OCC(=O)[C@H]21)C1CCCCC1)c1ccc(-c2ccccn2)s1` [Example 1, N-((S)-2-((3aS,6S,6aS)-6-chloro-3-oxotetrahydro-2H-furo[3,2-b]pyrrol-4(5H)-yl)-1-cyclohexyl-2-oxoethyl)-5-(pyridin-2-yl)thiophene-2-carboxamide], for which the “Selectivity Ki(hCatS)/Ki(hCatK)” value in test [1] is 28.7. The figures for the Ki in test [1] and in test [2] were 0.402 µM and 0.014 µM, respectively. Besides, the inhibition at 31.6 µM in test [3] was 3%.
With `Cc1cc(-c2cnc(C(=O)N[C@H](C(=O)N3C[C@H](Cl)[C@H]4OCC(=O)[C@H]43)C3CCCCC3)s2)cnn1` [Example 75, N-((S)-2-((3aS,6S,6aS)-6-chloro-3-oxotetrahydro-2H-furo[3,2-b]pyrrol-4(5H)-yl)-1-cyclohexyl-2-oxoethyl)-5-(6-methylpyridazin-4-yl)thiazole-2-carboxamide], the “Selectivity Ki(hCatS)/Ki(hCatK)” value in test [1] is 1.2. Also, the Ki in test [1] (setting [4]) worked out at 0.021 µM; in test [2], 0.018 µM. Also, the inhibition at 31.6 µM in test [3] was 28%.
Regarding `O=C(N[C@H](C(=O)N1C[C@H](Cl)[C@H]2OCC(=O)[C@H]21)C1CCCCC1)c1ccc(-c2ccc(C(F)(F)F)nc2)s1` [Example 62, N-((S)-2-((3aS,6S,6aS)-6-chloro-3-oxotetrahydro-2H-furo[3,2-b]pyrrol-4(5H)-yl)-1-cyclohexyl-2-oxoethyl)-5-(6-(trifluoromethyl)pyridin-3-yl)thiophene-2-carboxamide], the “Selectivity Ki(hCatS)/Ki(hCatK)” value in test [1] was 10.0. For the same molecule, the values for the Ki in test [1] (setting [4]) and in test [2] were 0.58 µM and 0.058 µM, respectively. For the same molecule, in test [3], the inhibition at 31.6 µM came to 25%.
As for `O=C(N[C@H](C(=O)N1C[C@H](Cl)[C@H]2OCC(=O)[C@H]21)C1CCCCC1)c1cc(F)c(-c2cccnn2)s1` [Example 54, N-((S)-2-((3aS,6S,6aS)-6-chloro-3-oxotetrahydro-2H-furo[3,2-b]pyrrol-4(5H)-yl)-1-cyclohexyl-2-oxoethyl)-4-fluoro-5-(pyridazin-3-yl)thiophene-2-carboxamide], the “Selectivity Ki(hCatS)/Ki(hCatK)” value in test [1] is recorded as 25.1. In addition, the Ki in test [1] (setting [4]) was 0.528 µM; in test [2], 0.021 µM. The inhibition at 31.6 µM in test [3] is 27%.
For `O=C(N[C@H](C(=O)N1C[C@H](Cl)[C@H]2OCC(=O)[C@H]21)C1CCCCC1)c1ccc(-c2ccncn2)o1` [Example 27, N-((S)-2-((3aS,6S,6aS)-6-chloro-3-oxotetrahydro-2H-furo[3,2-b]pyrrol-4(5H)-yl)-1-cyclohexyl-2-oxoethyl)-5-(pyrimidin-4-yl)furan-2-carboxamide], the “Selectivity Ki(hCatS)/Ki(hCatK)” value in test [1] was 2.7. Moreover, the inhibition at 31.6 µM in test [3] was 18%.
Consider `O=C(N[C@H](C(=O)N1C[C@H](Cl)[C@H]2OCC(=O)[C@H]21)C1CCCCC1)c1ccc(-c2cnccn2)s1` [Example 4, N-((S)-2-((3aS,6S,6aS)-6-chloro-3-oxotetrahydro-2H-furo[3,2-b]pyrrol-4(5H)-yl)-1-cyclohexyl-2-oxoethyl)-5-(pyrazin-2-yl)thiophene-2-carboxamide], for which the “Selectivity Ki(hCatS)/Ki(hCatK)” value in test [1] was 13.1. The values for the Ki in test [1] and in test [2] were 0.184 µM and 0.014 µM, respectively. For the same molecule, in test [3], the inhibition at 31.6 µM came to 17%.
Regarding `O=C(N[C@H](C(=O)N1C[C@H](Cl)[C@H]2OCC(=O)[C@H]21)C1CCCCC1)c1ncc(-c2ccnc(C3CC3)c2)s1` [Example 82, N-((S)-2-((3aS,6S,6aS)-6-chloro-3-oxotetrahydro-2H-furo[3,2-b]pyrrol-4(5H)-yl)-1-cyclohexyl-2-oxoethyl)-5-(2-cyclopropylpyridin-4-yl)thiazole-2-carboxamide], the “Selectivity Ki(hCatS)/Ki(hCatK)” value in test [1] turned out to be 14.3. The Ki in test [1] (setting [4]) was 0.129 µM; in test [2], 0.009 µM. Also, in test [3], the inhibition at 31.6 µM was 24%.
`O=C(N[C@H](C(=O)N1C[C@H](Cl)[C@H]2OCC(=O)[C@H]21)C1CCCCC1)c1cnc(-c2ccnnc2)o1` [Example 21, N-((S)-2-((3aS,6S,6aS)-6-chloro-3-oxotetrahydro-2H-furo[3,2-b]pyrrol-4(5H)-yl)-1-cyclohexyl-2-oxoethyl)-2-(pyridazin-4-yl)oxazole-5-carboxamide]: the “Selectivity Ki(hCatS)/Ki(hCatK)” value in test [1] came to 1.9. Moreover, the inhibition at 31.6 µM in test [3] came to 15%.
Take `COc1ccc(-c2ccc(C(=O)N[C@H](C(=O)N3C[C@H](Cl)[C@H]4OCC(=O)[C@H]43)C3CCCCC3)s2)nn1` [Example 34, N-((S)-2-((3aS,6S,6aS)-6-chloro-3-oxotetrahydro-2H-furo[3,2-b]pyrrol-4(5H)-yl)-1-cyclohexyl-2-oxoethyl)-5-(6-methoxypyridazin-3-yl)thiophene-2-carboxamide]: in test [1], the “Selectivity Ki(hCatS)/Ki(hCatK)” value was 21.5. Moreover, the inhibition at 31.6 µM in test [3] came to 15%.
For `O=C(N[C@H](C(=O)N1C[C@H](Cl)[C@H]2OCC(=O)[C@H]21)C1CCCCC1)c1nnc(-c2ccncc2)s1` [Example 28, N-((S)-2-((3aS,6S,6aS)-6-chloro-3-oxotetrahydro-2H-furo[3,2-b]pyrrol-4(5H)-yl)-1-cyclohexyl-2-oxoethyl)-5-(pyridin-4-yl)-1,3,4-thiadiazole-2-carboxamide], in test [1] (read-out: hCatS, inhibition [%] at 10 μM), the inhibition at 10 µM stood at 83%. Further, the inhibition at 31.6 µM in test [3] turned out to be 14%.
For the molecule `Cc1nccc(-c2ccc(C(=O)N[C@H](C(=O)N3C[C@H](Cl)[C@H]4OCC(=O)[C@H]43)C3CCCCC3)s2)n1` [Example 29, N-((S)-2-((3aS,6S,6aS)-6-chloro-3-oxotetrahydro-2H-furo[3,2-b]pyrrol-4(5H)-yl)-1-cyclohexyl-2-oxoethyl)-5-(2-methylpyrimidin-4-yl)thiophene-2-carboxamide], the “Selectivity Ki(hCatS)/Ki(hCatK)” value in test [1] was 26.4. For the same molecule, in test [3], the inhibition at 31.6 µM turned out to be 6%.
In the case of `O=C(N[C@H](C(=O)N1C[C@H](Cl)[C@H]2OCC(=O)[C@H]21)C1CCCCC1)c1ccc(-c2cccnc2)o1` [Example 10, N-((S)-2-((3aS,6S,6aS)-6-chloro-3-oxotetrahydro-2H-furo[3,2-b]pyrrol-4(5H)-yl)-1-cyclohexyl-2-oxoethyl)-5-(pyridin-3-yl)furan-2-carboxamide], the “Selectivity Ki(hCatS)/Ki(hCatK)” value in test [1] came out at 11.3. In addition, the inhibition at 31.6 µM in test [3] is 16%.
